Measured values from patent US20030212015A1, “Specific modulation of Th1/Th2 cytokine expression by ribavirin in activated T-lymphocytes” (priority 1996, published 2003).

How the values were obtained:
Type in all cases: cell-based, human
TNFα = assay: Extracellular TNFα levels in PMA/ionomycin-activated T cells (ELISA)
Method: (§1) Peripheral blood mononuclear cells (PBMCs) were isolated from the buffy coat following Ficoll-Hypaque density gradient centrifugation of 60 ml blood from healthy donors. T-cells were then purified from the PBMCs using Lymphokwik lymphocyte isolation reagent specific for T-cells (LK-25T, One Lambda, Canoga Park Calif.). An average yield of 40-60×10^6 T-cells were then incubated overnight at 37° C. in 20-30 ml RPMI-AP5 (RPMI-1640 medium (ICN, Costa Mesa, Calif.) containing 20 mM HEPES buffer, pH 7.4, 5% autologous plasma, 1% L-glutamine, 1% penicillin/streptomycin and 0.05% 2-mercaptoethanol) to remove any contaminating adherent cells. In all experiments, T-cells were washed with RPMI-AP5 and then plated on 96-well microtitre plates at a cell concentration of 1×10^6 cells/ml.
(§2) T-cells were activated by the addition of 500 ng ionomycin and 10 ng phorbol 12-myristate 13-acetate (PMA) (Calbiochem, La Jolla, Calif.) and incubated for 48-72 h at 37° C. […]
(§3) Cell-derived human cytokine concentrations were determined in cell supernatants from each microplate. Activation-induced changes in interleukin-2 (IL-2) levels were determined using a commercially available ELISA kit (R & D systems Quantikine kit, Minneapolis, Minn.) or by bioassay using the IL-2-dependent cell line, CTLL-2 (ATCC, Rockville, Md.). […]

IL-2 in CD4+ T cells = assay: Intracellular IL-2 expression in activated CD4+ T cells (two-color flow cytometry); conditions: PMA/ionomycin alone 82%, one experiment, FIG. 5
Method: (§4) T-cells were activated by the addition of 500 ng ionomycin and 10 ng phorbol 12-myristate 13-acetate (PMA) (Calbiochem, La Jolla, Calif.) and incubated for 48-72 h at 37° C. PMA/ionomycin-activated T-cells were treated with 0.5-50 μM Ribavirin or with 250-10000 U/ml of a control antiviral, interferon-alpha (Accurate, Westbury, N.Y.) immediately following activation and re-treated 24 h later. T-cells from each plate were used for immunofluorescence analysis and the supernatants used for extracellular cytokine measurements. Following activation, 900 μl cell supernatant from each microplate was transferred to another microplate for analysis of cell-derived cytokine production. The cells are then used in immunofluorescence analyses for intracellular cytokine levels and cytokine receptor expression.
(§5) For analyses of the intracellular expression of IL-2 in CD4^+ and CD8^+ T cell subsets, T cells were first treated for the last 4 h of 48-72 h activation with 10 μg Brefeldin A (Gibco BRL, Gaithersburg, Md.) to minimize secretion of newly synthesized IL-2 into the extracellular milieu. […]
(§6) We examined whether the effect of Ribavirin on IL-2 expression was specific to CD4^+ or CD8^+ T cells. Intracellular IL-2 expression in fixed and Permeabilized activated T cells was determined by two-color flow cytometry using fluorescence-labeled antibodies to CD4 or CD8 and to IL-2. […]

IL-2 in CD8+ T cells = assay: Intracellular IL-2 expression in activated CD8+ T cells (two-color flow cytometry); conditions: PMA/ionomycin alone 81%, one experiment, FIG. 5
Method: as §4, §5, §6

IL-2 = assay: Extracellular IL-2 levels in PMA/ionomycin-activated T cells (ELISA or CTLL-2 bioassay)
Method: as §1, §2, §3

IL-4 (CDw124) receptor = assay: Cell surface IL-4 receptor expression in activated T cells (FACS); conditions: compared to control activated T cells, FIG. 4
Method: as §4, with “The cells are then used in immunofluorescence analyses for intracellular cytokine levels and cytokine receptor expression.” left out
(§7) For direct staining with fluorescence-conjugated antibodies to cell surface antigens, the cells were washed twice with isotonic saline solution, pH 7.4 (Becton Dickinson, Mansfield, Mass.) and resuspended in 50 μl isotonic saline solution and split into two samples. One sample aliquot was co-stained with either PE-anti CD25/FITC-anti CD4 or PE-rat anti mouse IgG+anti-CDw124/FITC-anti CD4 mAb and non-specific fluorescence was assessed by staining the second aliquot with PE/FITC-labeled isotype-matched control monoclonal antibody. All fluorescence-labeled monoclonal antibodies were obtained from Becton Dickinson (San Jose, Calif.) except for anti-CDw124 which was obtained from Pharmingen, San Diego, Calif. […]

IL-4 mRNA = IL-4 mRNA in PMA/ionomycin-activated T cells (RT-PCR); conditions: FIG. 3
Method: as §4, with “expression. […]” for “expression.”
(§8) The PCR reaction was performed using GeneAmp PCR kit (Perkin-Elmer Cetus, Foster City, Calif.). […] PCR products were analyzed on 2% agarose gel containing ethidium bromide. […] Equivalent loading was assessed following hybridization with a probe generated from pHE7 sense primer. Washed blots were then analyzed using Phosphorlmager.

IL-2 mRNA = IL-2 mRNA in PMA/ionomycin-activated T cells (RT-PCR); conditions: FIG. 3
Method: as §4, with “expression. […]” for “expression.”
as §8

IL-2 (CD25) receptor = assay: Cell surface IL-2 receptor expression in activated T cells (FACS); conditions: compared to control activated T cells, FIG. 4
Method: as §4, with “The cells are then used in immunofluorescence analyses for intracellular cytokine levels and cytokine receptor expression.” left out
as §7

IL-4 = assay: Extracellular IL-4 levels in PMA/ionomycin-activated T cells (ELISA)
Method: as §1, §2, §3

IFNγ mRNA = IFNγ mRNA in PMA/ionomycin-activated T cells (RT-PCR); conditions: FIG. 3
Method: as §4, with “expression. […]” for “expression.”
as §8

[1] = 2, 5 and 10 μM following T cell activation
[2] = range 250-10000 U/ml, dose-dependent, compared to untreated activated T cells

Compound	maximal augmentation of activated levels of TNFα (TNFα; at 20 μM (dose range 0.5-50 μM), PMA/ionomycin-activated T cells, 48-72 h, representative experiment, FIG. 1)	percentage of CD4+ T cells expressing IL-2 (IL-2 in CD4+ T cells; 10 μM)	percentage of CD8+ expressing IL-2 (IL-2 in CD8+ T cells; 10 μM)	maximal augmentation of activated levels of IL-2 (IL-2; at 5 μM (dose range 0.5-50 μM), PMA/ionomycin-activated T cells, 48-72 h, representative experiment, FIG. 1)	effect on activated levels of IL-4 receptor (IL-4 (CDw124) receptor; 1-50 μM)	effect on IL-4 mRNA (IL-4 mRNA; [1])	effect on IL-2 mRNA (IL-2 mRNA; [1])	effect on activated levels of IL-2 receptor (IL-2 (CD25) receptor; 1-50 μM)	inhibition at 2 µM (IL-4; Homo sapiens, T-cell, at 2 μM, read-out: peak inhibition of activated levels of IL-4)	effect on IFNγ mRNA (IFNγ mRNA; [1])	maximal inhibition of TNFα expression (TNFα; [2])	percentage of IL-2-expressing CD4+ cells (IL-2 in CD4+ T cells; 5000 U/ml)	percentage of IL-2-expressing CD8+ cells (IL-2 in CD8+ T cells; 5000 U/ml)	maximal inhibition of IL-2 expression (IL-2; [2])	effect on IL-4 receptor expression (IL-4 (CDw124) receptor; 250-10000 U/ml, dose-dependent)	effect on IL-4 mRNA (IL-4 mRNA; 1000, 2000 and 5000 U/ml)	effect on IL-2 mRNA (IL-2 mRNA; 1000, 2000 and 5000 U/ml)	effect on IL-2 receptor expression (IL-2 (CD25) receptor; 250-10000 U/ml, dose-dependent)	maximal increase of extracellular IL-4 (IL-4; 10000 U/ml)	effect on IFNγ mRNA (IFNγ mRNA; 1000, 2000 and 5000 U/ml)
NC(=O)c1ncn([C@@H]2O[C@H](CO)[C@@H](O)[C@H]2O)n1 [Ribavirin, 1-β-D-ribofuranosyl-1,2,4-triazole-3-carboxamide]	36%	91%	91%	30%	little effect	decreases	elevates	little effect	74%	has no effect	–	–	–	–	–	–	–	–	–	–
interferon-α	–	–	–	–	–	–	–	–	–	–	38%	81%	71%	33%	increased	increases	decreases	decreased	26%	decreases
